Results reported in publication PMC10046037, “GABRG2 Variants Associated with Febrile Seizures” (Biomolecules, 2023).

Experiments:
[1] = target: T1, α1β3γ2 GABAA receptor, γ2W162X variant (Homo sapiens, UniProt P14867+P28472); assay: Automated patch clamp of GABA-elicited currents (SyncroPatch 384PE), γ2W162X; format: cell-based; conditions: mean
T1 construct: expressed in transfected cells; host or cells: HEK293T
T1 sequence (P14867 28-456): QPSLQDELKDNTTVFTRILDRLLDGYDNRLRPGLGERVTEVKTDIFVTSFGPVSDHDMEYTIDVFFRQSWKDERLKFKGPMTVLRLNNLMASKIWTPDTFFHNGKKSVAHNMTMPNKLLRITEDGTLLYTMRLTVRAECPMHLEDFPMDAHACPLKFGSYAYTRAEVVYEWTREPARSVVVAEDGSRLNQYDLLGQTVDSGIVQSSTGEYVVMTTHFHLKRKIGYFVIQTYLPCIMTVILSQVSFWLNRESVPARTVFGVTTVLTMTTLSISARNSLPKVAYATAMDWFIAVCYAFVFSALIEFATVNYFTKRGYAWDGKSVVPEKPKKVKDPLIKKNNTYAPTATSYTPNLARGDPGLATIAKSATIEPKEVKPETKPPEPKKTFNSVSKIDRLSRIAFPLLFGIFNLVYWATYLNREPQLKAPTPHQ
T1 sequence (P28472 1-473 isoform P28472-2): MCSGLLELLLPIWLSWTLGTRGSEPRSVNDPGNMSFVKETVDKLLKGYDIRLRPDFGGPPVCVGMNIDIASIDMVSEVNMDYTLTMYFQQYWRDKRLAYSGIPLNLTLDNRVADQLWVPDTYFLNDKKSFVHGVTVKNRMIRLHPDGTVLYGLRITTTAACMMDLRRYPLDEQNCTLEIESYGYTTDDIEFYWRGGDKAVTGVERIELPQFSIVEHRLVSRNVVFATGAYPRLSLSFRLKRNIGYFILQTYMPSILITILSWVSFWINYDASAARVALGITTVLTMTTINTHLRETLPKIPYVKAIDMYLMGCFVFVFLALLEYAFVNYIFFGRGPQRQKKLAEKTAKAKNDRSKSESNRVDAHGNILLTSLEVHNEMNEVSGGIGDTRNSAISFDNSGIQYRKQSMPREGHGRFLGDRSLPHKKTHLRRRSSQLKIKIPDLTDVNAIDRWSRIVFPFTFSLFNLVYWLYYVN
Method: (§1) The coding sequences of human α1 (GABRA1, NM_000806), β3 (GABRB3, NM_021912), and γ2 (GABRG2, NM_198904.2) GABAAR subunits were subcloned into the pcDNA3.1 expression vectors (Invitrogen, Waltham, MA, USA).
(§2) HEK293T cells (ATCC, CRL-11268) were cultured at 37 °C in a humidified 5% CO2 incubator and maintained in Dulbecco’s modified Eagle’s medium (Invitrogen) supplemented with 10% fetal bovine serum (Life Technologies, Carlsbad, CA, USA), and 100 IU/mL of penicillin/streptomycin (Life Technologies). For the expression experiments, 4 × 10^5 cells were transfected using polyethylenimine (PEI) reagent (40 kD, Polysciences, Warrington, PA, USA) at a DNA: to transfection reagent ratio of 1:2.5 and harvested 36 h after transfection. To express WT and variant α1β3γ2 receptors, a total of 3 µg of α1, β3, and γ2 (WT or mutant) subunit cDNAs were transfected at a ratio of 1:1:1 into 60 mm culture dishes. For the mock-transfected condition, an empty pcDNA3.1 vector was added for a final cDNA transfection amount of 3 μg. For the electrophysiology experiments, 2.5 × 10^5 cells were plated in 100 mm culture dishes and transfected after 24 h with 3 μg of cDNA of each α1, β3, γ2 (wild-type or mutant) subunit, using X-tremeGENE HP DNA transfection Reagent (Roche Diagnostics, Basel, Switzerland), following the manufacturer’s protocol. Recordings were obtained forty-eight hours after transfection.
(§3) Whole-cell patch clamp recordings were conducted according to the manufacturer’s standard procedure for the SyncroPatch 384 [31]. Whole-cell voltage-clamp recordings were performed at room temperature on HEK293T cells 48 h after transfection with GABAAR subunits, using the SyncroPatch 384PE (Nanion Technologies, Munich, Germany). Cells, at a concentration of 400,000 cells/mL, were harvested in suspension in external solution containing 140 mM of NaCl, 2 mM of CaCl2, 4 mM of KCl, 1 mM of MgCl2, 5 mM of glucose, and 10 mM of HEPES (pH 7.4 with NaOH, 298 mOsm). The cells were loaded in a multi-hole (4 holes per well) 384-well Nanion patch clamp (NPC) chip with a thick borosilicate glass bottom and an average resistance pore size of […]. Built-in electrophysiological protocols were used, and the data were digitized using PatchControl 384 (Nanion Technologies) application. Using PatchControl 384, electrophysiological parameters, such as seal resistance, capacitance, and series resistance, were determined for each well after the application of a test pulse, and subsequently monitored over time. […] The currents were normalized to the maximal response of each well, and the concentration–response curves were calculated from single-point additions. The EC50 values for each variant or wild-type receptor were calculated across multiple wells for each experimental condition.

[2] = target: T2, α1β3γ2 GABAA receptor, γ2R224X variant (Homo sapiens, UniProt P14867+P28472); assay: Automated patch clamp of GABA-elicited currents (SyncroPatch 384PE), γ2R224X; format: cell-based; conditions: mean
T2 construct: expressed in transfected cells; host or cells: HEK293T
T2 sequence (P14867 28-456): T1 sequence (P14867 28-456)
T2 sequence (P28472 1-473 isoform P28472-2): T1 sequence (P28472 1-473 isoform P28472-2)
Method: as §1, §2, §3

[3] = 1 mM GABA for 5 ms, HEK293T, -80 mV
[4] = 10–90% rise time, 1 mM GABA for 5 ms, HEK293T

**Q.** Which Deactivation [1, 3] does the source give for NCCCC(=O)O [GABA, γ-aminobutyric acid] here?
**A.** Its Deactivation is 533.8 ms.

**Q.** What about the “IMAX (maximal GABA-evoked peak current)” value ([1]; 1 mM GABA for 5 ms, HEK293T) of the same molecule?
**A.** Its value is 0.48 nA.

**Q.** And the “IMAX variant/IMAX WT” value ([1]; 1 mM GABA)?
**A.** Its value is 24.07%.

**Q.** What about the “Rise Time” value [1, 4] of the same molecule?
**A.** Its value is 23.51 ms.

**Q.** And the Deactivation [2, 3]?
**A.** Its Deactivation is 350.1 ms.

**Q.** What about the “IMAX (maximal GABA-evoked peak current)” value ([2]; 1 mM GABA for 5 ms, HEK293T) of the same molecule?
**A.** The value was 0.85 nA.

**Q.** And the “IMAX variant/IMAX WT” value ([2]; 1 mM GABA)?
**A.** Its value is 42.52%.

**Q.** And the “Rise Time” value [2, 4]?
**A.** The value was 72.64 ms.
